# Patent publication US10787651B2, “Bradyrhizobium monooxygenase and use thereof for preparation of chiral sulfoxide” (JIANGSU AOSAIKANG PHARMACEUTICAL CO., LTD., priority 2018, dated 2020)
# Legend:
# [1] = system: Bradyrhizobium oligotrophicum ECU1212 resting cells; experiment: Asymmetric oxidation of thioethers by whole resting cells; assay type: cell-based
# Description: Optionally, resting cells harvested from the culture of Bradyrhizobium oligotrophicum ECU1212 are used to asymmetrically catalyze the oxidation of lansoprazole thioether to prepared (R)-lansoprazole under the conditions that the thioether substrate concentration is 0.1 g/L, the catalyst loading is 10 g/L, and the reaction is carried out at 30° C. under stirring at 180 rpm. The conversion rate of lansoprazole thioether can be up to 80%, and the optical purity can be up to 99% ee(R). it can be seen that the Bradyrhizobium oligotrophicum ECU1212 comprises functional enzyme(s) which serve to asymmetrically catalyze the oxidation and have a high catalytic conversion rate. Thus, it can solve the problem that the conventional bio-catalysts have low conversion rate in the asymmetric catalytic oxidation process. […]
# To 100 ml Tris-HCl buffer (100 mmol/L, pH 9.0) was added 1 g of Bradyrhizobium oligotrophicum ECU1212 lyophilized cells (lyophilized cells prepared in accordance with Example 2), and thioanisole and methanol were added to a final concentration of 37 g/L, 10% (v/v). […] Then, the residue was dissolved in 0.5 ml isopropanol, and the solution was analyzed in accordance with the method of Example 7 for the conversion of reaction and the ee value of product. […]
# Recombinant BoTEMO = experiment: Asymmetric oxidation of thioethers by recombinant BoTEMO crude enzyme with glucose dehydrogenase recycling; assay type: biochemical, Bradyrhizobium oligotrophicum ECU1212; details: 25° C.
# Description: The analysis is carried out with a high performance liquid chromatograph (HPLC) under the conditions of: a chiral OD-H column ([…], 5 μm particle size, Daicel), a mobile phase of n-hexane:isopropanol=93:7, a flow rate of 1 ml/min, and UV detection at 254 nm; or an AS-H column (250 mm×4.6 mm, 5 μm particle size, Daicel), a mobile phase of n-hexane:isopropanol=55:45, a flow rate of 0.5 mL/min, and UV detection at 254 nm.
# To 0.5 ml potassium phosphate buffer (100 mmol/L, pH 9.0) was added 100 μL of crude enzyme solution of BoTEMO (the crude enzyme solution in accordance with the method of Example 5) and a crude enzyme solution of glucose dehydrogenase, and thioanisole, methanol, NADP^+ and glucose were added to the final concentration of 2 mmol/L, 10% (v/v), 0.2 mmol/L and 3.6 g/L, respectively. At 25° C. and 1000 rpm, the mixture was shaken for 1 h. After completion of reaction, 0.6 ml of ethyl acetate was added for extraction. The extract was dried over anhydrous sodium sulfate, and evaporated to remove the solvent. Then, the residue was dissolved in 0.5 ml of isopropanol. The mixture was analyzed in accordance with the method of Example 7 for measure the conversion of reaction and the ee value of product. The conversion of reaction was above 99%, and the ee value of product was above 99% (S).
# To 0.5 ml of potassium phosphate buffer (100 mmol/L, pH 9.0) was added 100 μL crude enzyme solution of BoTEMO (the crude enzyme solution prepared in accordance with the method of Example 5) and a crude enzyme solution of glucose dehydrogenase, and omeprazole thioether, methanol, NADP^+ and glucose were added to the final concentrations of 0.2 mmol/L, 10% (v/v), 0.2 mmol/L and 3.6 g/L, respectively. At 25° C. and 1000 rpm, the mixture was shaken for 1 h. After completion of reaction, 0.6 ml of ethyl acetate was added for extraction. […] Then, the residue was dissolved in 0.5 ml isopropanol, and the solution was analyzed in accordance with the method of Example 7 for measuring the conversion of reaction and the ee value of product. […]
# To 10 ml of potassium phosphate buffer (100 mmol/L, pH 9.0) was added 0.1 g of lyophilized crude enzyme powders of BoTEMO (crude enzyme powders prepared in accordance with the method of Example 5) and 0.02 g of lyophilized crude enzyme powder of glucose dehydrogenase (15 U/mg), and 1-3 g/L of omeprazole thioether/lansoprazole thioether/pantoprazole thioether/rabeprazle thioether/ilaprazole thioether, 10% (v/v) of methanol, 0.2 mmol/L of NADP^+ and 10 g/L of glucose were added. […] Then, the residue was dissolved in 0.5 ml of isopropanol, and the solution was analyzed in accordance with the method of Example 7 for measuring the conversion of reaction and the ee value of product. […]
# BoTEMO-M1 = experiment: Asymmetric oxidation of lansoprazole thioether by BoTEMO-M1; assay type: biochemical, Bradyrhizobium oligotrophicum ECU1212; details: 10 g/L substrate, 25° C., 24 h
# Description: (§1) To 100 ml Tris-HCl buffer (100 mmol/L, pH 9.0) was added 1 g of lyophilized crude enzyme powders of BoTEMO-M1 and 0.2 g crude enzyme of glucose dehydrogenase. Lansoprazole thioether, methanol, NADP^+ and glucose were added to the final concentrations of 10 g/L, 10% (v/v), 0.2 mmol/L and 15 g/L, respectively. The reaction was stirred at 25° C. and 180 rpm for 24 h. When the lansoprazole thioether was asymmetrically catalytically oxidized to (R)-lansoprazole, the resultant conversion of the reaction was above 99%, and the ee value of product was above 99% (R).
# as §1, with “To 2 L” for “To 100 ml”, “added 20” for “added 1”, “g” for “g of”, “and 4” for “and 0.2”, “of” for “of the”, “(R). Separation by extraction gave […] of the product (R)-lansoprazole, and the yield was 86%.” for “(R).”
# BoTEMO-M2 = experiment: Asymmetric oxidation of lansoprazole thioether by BoTEMO-M2; assay type: biochemical, Bradyrhizobium oligotrophicum ECU1212; details: BoTEMO-M2 powders in 100 ml, 3 g/L substrate, 25° C., 24 h
# Description: as §1, with “added” for “added 1 g of”, “of BoTEMO-M2” for “of BoTEMO-M1”, “of 3” for “of 10”, “and 5.4” for “and 15”
# [2] = system: engineered cyclohexanone monooxygenase (CHMO); details: substrate loading 1.5 g/L, after 17 h; cited from earlier work
# Lysinibacillus = details: substrate loading 0.1 g/L, after 48 fermentation cultivation; cited from earlier work
smiles,measurement,setting,value
Cc1c(OCC(F)(F)F)ccnc1CSc1nc2ccccc2[nH]1 [lansoprazole thioether],conversion rate,"[1]; substrate 0.1 g/L, catalyst loading 10 g/L, 30° C., 180 rpm",up to 80%
same,conversion of reaction,"Recombinant BoTEMO; 0.2 g crude enzyme powders in 10 ml, 2 g/L substrate, 24 h",above 99%
same,conversion of the reaction,BoTEMO-M1; 1 g BoTEMO-M1 powders in 100 ml,above 99%
same,conversion of reaction,BoTEMO-M1; 20 g BoTEMO-M1 powders in 2 L,above 99%
same,conversion of the reaction,BoTEMO-M2,above 99%
same,conversion,[2],1.2%
COc1ccc2[nH]c(SCc3ncc(C)c(OC)c3C)nc2c1 [omeprazole thioether],conversion of reaction,"Recombinant BoTEMO; 1 g crude enzyme powders in 100 ml, 1 g/L substrate, 3 h",above 99%
same,conversion of reaction,"Recombinant BoTEMO; crude enzyme solution, 0.2 mmol/L substrate, 1 h",above 99%
same,conversion,Lysinibacillus,77%
CSc1ccccc1 [thioanisole],conversion of reaction,"[1]; 37 g/L substrate, 1 g lyophilized cells in 100 ml, 28° C., 24 h",above 99%
same,conversion of reaction,"Recombinant BoTEMO; crude enzyme solution, 2 mmol/L substrate, 1 h",above 99%
